US20260248881A1, “PHARMACEUTICAL COMPOSITION COMPRISING FOXM1 INHIBITOR AND IMMUNE CHECKPOINT INHIBITOR FOR PREVENTING OR TREATING CANCER” (National Cancer Center, priority 2022, published 2026)

How the values were obtained:
[1] = molecular target: T1, FOXM1 (Homo sapiens, UniProt Q08050); assay: FOXM1 inhibitors tested in H1299 and PC9 cells (FOXM1 levels); assay type: cell-based
T1 construct: host or cells: H1299 and PC9 cells
T1 sequence (Q08050 1-763): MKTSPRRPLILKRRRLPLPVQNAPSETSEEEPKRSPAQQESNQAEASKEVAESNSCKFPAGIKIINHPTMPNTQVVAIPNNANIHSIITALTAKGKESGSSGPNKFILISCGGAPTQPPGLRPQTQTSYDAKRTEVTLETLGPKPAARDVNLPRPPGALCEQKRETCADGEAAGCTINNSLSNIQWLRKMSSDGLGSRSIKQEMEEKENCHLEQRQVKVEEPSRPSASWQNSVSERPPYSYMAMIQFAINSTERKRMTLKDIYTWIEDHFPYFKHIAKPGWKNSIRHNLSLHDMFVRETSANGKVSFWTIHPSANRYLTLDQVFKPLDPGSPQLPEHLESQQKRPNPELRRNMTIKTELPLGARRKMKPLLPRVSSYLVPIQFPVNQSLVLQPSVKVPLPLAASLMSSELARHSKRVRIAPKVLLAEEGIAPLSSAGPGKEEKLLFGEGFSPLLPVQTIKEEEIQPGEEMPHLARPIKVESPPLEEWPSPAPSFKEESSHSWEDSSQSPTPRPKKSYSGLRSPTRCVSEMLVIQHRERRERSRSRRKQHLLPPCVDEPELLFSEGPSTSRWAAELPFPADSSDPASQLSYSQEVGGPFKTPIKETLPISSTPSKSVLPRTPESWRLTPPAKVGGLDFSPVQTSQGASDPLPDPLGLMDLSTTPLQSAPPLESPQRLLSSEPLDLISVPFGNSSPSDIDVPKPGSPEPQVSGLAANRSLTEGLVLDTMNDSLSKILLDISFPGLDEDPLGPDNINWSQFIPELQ
Description: H1299 and PC9 cells purchased from ATCC (Manassas, VA, USA) were cultured in RPMI-1640 medium (#10-040-CV; Corning, New York, NY, USA) supplemented with 10% […] (#35-010-CV; Corning) and penicillin-streptomycin antibiotic cocktail (#15240062; Thermo Fisher Scientific, Waltham, MA, USA) at 37° C. and 5% CO2.
Total RNA was extracted and purified using the RNeasy kit (#74004; QIAGEN) according to the manufacturer's protocol. Reverse transcription of mRNA was performed using a PrimeScript 1st Strand CDNA Synthesis Kit (#6110A; TaKaRa Bio, Otsu, Japan). Quantitative PCR was performed using primers specific for the CD274 and FOXM1 genes designed using Primer 3 software. A β-actin gene was used as an internal control group to normalize target gene expression.

[2] = system: H1299 and PC9 cells; assay: Apoptotic cell death assay (Annexin V/PI staining); assay type: cell-based, human; settings: 5 μM TST or siFOXM1
Description: H1299 and PC9 cells (1×10^5) were cultured in 6-well plates, transfected with siFOXM1 or NC siRNA or treated with 5 μM TST or dimethyl sulfoxide (DMSO), and then stained using fluorescein isothiocyanate (FITC) Annexin V Apoptosis Detection Kit I (#556547; BD Biosciences). Cells were analyzed within 1 hour to reduce side effects due to staining, and flow cytometry was performed using a FACSVerse cell analyzer (BD Biosciences).

[3] = system: PD-L1; assay: PD-L1 expression on cell membrane of H1299 and PC9 cells (immunocytochemistry, Western blot); assay type: cell-based, human; settings: for PD-L1 expression restoration on the cell membrane by FOXM1 overexpression, by: TST 5 μM 48 hours in the presence of IFNγ; for reduction in the PD-L1 levels (cell membrane): TST in the presence of IFNγ, vs DMSO control
Description: Cells were lysed in RIPA buffer supplemented with complete mini protease inhibitor cocktail (#04693124001; Roche, Basel, Switzerland) and kept on ice for 30 minutes. Equal amounts of protein were evenly loaded and analyzed by sodium dodecyl sulfate-polyacrylamide gel electrophoresis (SDS-PAGE), and transferred to polyvinylidene difluoride (PVDF) membranes (#IPVH 00010; Millipore, Billerica, MA, USA) at 100 V for 1 hour. Primary antibodies (Santa Cruz Biotechnology, Texas, USA) specific for FOXM1 (#sc-271746), cyclin E1 (#sc-481), α-tubulin (#sc-8035), and β-actin (#sc-47778); PD-L1 (#13684S), cyclin D1 (#2978S), cyclin B1 (#4138S), c-MYC (#5605S), and poly(ADP-ribose) polymerase (PARP, #9542S; Cell Signaling Technology, Beverly, MA, USA) were used to probe proteins of interest. A horseradish-peroxidase-conjugated secondary antibodies specific to the primary antibody was used to detect proteins using pico-enhanced chemiluminescence substrate (#34577; Thermo Fisher Scientific).
Cells were fixed in 4% paraformaldehyde (#30525-89-4; FUJIFILM Wako Chemical, Wako, Japan) for 15 minutes and blocked with 1% bovine serum albumin (BSA) in phosphate-buffered saline-0.01% Tween-20 (PBS-T) to reduce nonspecific antibody binding. Cells were then incubated overnight with an anti-PD-L1 antibody (#14598382; eBioscience, San Diego, CA, USA) diluted 1:200 and an anti-FOXM1 antibody (#sc-271746; Santa Cruz Biotechnology) diluted 1:50, followed by incubation with an Alexa Fluor 488-labeled secondary antibody (#A11029; Thermo Fisher Scientific) for 1 hour. Nuclei were stained with Hoechst 33342. After incubation, cells were washed with PBS and mounted on glass slides using Prolong Glass Antifade mounting medium (#P36982; Thermo Fisher Scientific). Confocal microscopy was performed using a Zeiss 730 Meta microscope (Carl Zeiss, Oberkochen, Germany) and analyzed using Axiovision software (Carl Zeiss).

[4] = system: CD274 promoter; assay: ChIP-PCR of FOXM1 binding to CD274 promoter; assay type: cell-based, human; settings: H1299 and PC9; vs respective controls
Description: To cross-link proteins to DNA, H1299 and PC9 cells were treated with 0.7% formaldehyde at 37° C. for 10 minutes. Cross-linking was quenched by adding glycine to the culture medium at a final concentration of 0.125 M for 5 minutes. The cells were sonicated using a Bioruptor Next Gen sonicator (Diagenode, Denville, NJ, USA) for 5 minutes in 30 s on/30 s off cycle to obtain ~500 bp DNA fragments. The sonicated cell lysates containing genomic DNA fragments were pre-cleared to eliminate unwanted nonspecific components. ChIP was performed using antibody against FOXM1 (#sc-271746, Santa Cruz Biotechnology) with rotation at 4° C. overnight, followed by various washing steps, reverse cross-linking, and protein digestion with proteinase K (#P2308; Sigma-Aldrich, St. Louis, MO, USA). The immunoprecipitated DNA fragments were purified using a phenol-chloroform method, and the purified DNA pellets were resuspended in TE buffer (pH 8.0) and used for PCR. Primers specifically detecting a FOXM1 binding region were designed using a Primer3 tool for chromatin immunoprecipitation-PCR (ChIP-PCR) (Table 1).

## thiostrepton [TST]
[1]
  FOXM1 levels: the most effective inhibitor, significantly reducing FOXM1 levels
[2]
  apoptotic cell population (annexin V/PI positive cells): significantly increased in a time-dependent manner
[3]; H1299
  elevated level of PD-L1 by pFLAG-FOXM1 overexpression decreased to: 41.9%
  PD-L1 expression restoration on the cell membrane by FOXM1 overexpression, by: 38.7%
  reduction in the PD-L1 levels (cell membrane): 87.23%
[3]; PC9
  elevated level of PD-L1 by pFLAG-FOXM1 overexpression decreased to: 68.0%
  PD-L1 expression restoration on the cell membrane by FOXM1 overexpression, by: 46%
  reduction in the PD-L1 levels (cell membrane): 85.82%
[4]
  FOXM1 binding to the CD274 promoter: dramatic decrease
